Laboratory results from patent US10947188B2, “Small molecule ferroptosis inducers” (THE TRUSTEES OF COLUMBIA UNIVERSITY IN THE CITY OF NEW YORK, priority 2016, dated 2021).

Test system: BJeLR
Test: Modulatory profiling: Alamar Blue viability, lethal compound cotreated with death modulator (EC50, AUC)
Assay type: cell-based, human
Set-up: AUC, modulator BJ.Gd3+ / AUC, modulator BJ.LNAME / AUC, modulator BJ.Lmin / AUC, modulator BJ.3MA / AUC, modulator BJ.ALLN / AUC, modulator BJ.Boc D / AUC, modulator BJ.CHX / AUC, modulator BJ.Co2+ / AUC, modulator BJ.Nec-1 / AUC, modulator BJ.Pepstatin / AUC, modulator BJ.TLCK / AUC, modulator BJ.atoc / AUC, modulator BJ.trolox / AUC, modulator BJ.zVAD: unit not given beside the values
Conditions: BJeLR cells, modulatory profile value (AUC); for AUC, modulator BJ.3MA: lethal compound cotreated with modulator 3MA; for AUC, modulator BJ.ALLN: lethal compound cotreated with modulator ALLN; for AUC, modulator BJ.Boc D: lethal compound cotreated with modulator Boc D; for AUC, modulator BJ.CHX: lethal compound cotreated with modulator CHX; for AUC, modulator BJ.Co2+: lethal compound cotreated with modulator Co2+; for AUC, modulator BJ.DPQ: lethal compound cotreated with modulator DPQ; for AUC, modulator BJ.Gd3+: lethal compound cotreated with modulator Gd3+; for AUC, modulator BJ.LNAME: lethal compound cotreated with modulator LNAME; for AUC, modulator BJ.Lmin/NAD+: lethal compound cotreated with modulator Lmin/NAD+; for AUC, modulator BJ.Lmin: lethal compound cotreated with modulator Lmin; for AUC, modulator BJ.NAD+: lethal compound cotreated with modulator NAD+; for AUC, modulator BJ.NMMA: lethal compound cotreated with modulator NMMA; for AUC, modulator BJ.Nec-1: lethal compound cotreated with modulator Nec-1; for AUC, modulator BJ.Pepstatin: lethal compound cotreated with modulator Pepstatin; for AUC, modulator BJ.TLCK: lethal compound cotreated with modulator TLCK; for AUC, modulator BJ.atoc: lethal compound cotreated with modulator atoc; for AUC, modulator BJ.trolox: lethal compound cotreated with modulator trolox; for AUC, modulator BJ.zVAD: lethal compound cotreated with modulator zVAD

| Compound | AUC, modulator BJ.3MA | AUC, modulator BJ.ALLN | AUC, modulator BJ.Boc D | AUC, modulator BJ.CHX | AUC, modulator BJ.Co2+ | AUC, modulator BJ.DPQ | AUC, modulator BJ.Gd3+ | AUC, modulator BJ.LNAME | AUC, modulator BJ.Lmin/NAD+ | AUC, modulator BJ.Lmin | AUC, modulator BJ.NAD+ | AUC, modulator BJ.NMMA | AUC, modulator BJ.Nec-1 | AUC, modulator BJ.Pepstatin | AUC, modulator BJ.TLCK | AUC, modulator BJ.atoc | AUC, modulator BJ.trolox | AUC, modulator BJ.zVAD |
| --- | --- | --- | --- | --- | --- | --- | --- | --- | --- | --- | --- | --- | --- | --- | --- | --- | --- | --- |
| CC[C@]1(O)C[C@H]2CN(CCc3c([nH]c4ccccc34)[C@@](C(=O)OC)(c3cc4c(cc3OC)N(C=O)[C@H]3[C@@](O)(C(=O)OC)[C@H](OC(C)=O)[C@]5(CC)C=CCN6CC[C@]43[C@@H]65)C2)C1 [Vincristine] | −0.03566 | −0.03171 | −0.005016 | 0.1955 | 0.1806 | −0.03044 | 0.007944 | −0.00717 | 0.1721 | 0.06034 | 0.1255 | −0.003354 | −0.05572 | −0.002521 | −0.01255 | 0.04717 | −0.03305 | 0.01856 |
| C[C@@H]1C[C@@H]([C@H](O)CC2CC(=O)NC(=O)C2)C(=O)[C@@H](C)C1 [cycloheximide, Cycloheximide, reference compound] | 0.03847 | 0.09461 | 0.02242 | 0.3613 | 0.2375 | 0.02122 | 0.02359 | 0.007696 | 0.1057 | 0.0775 | 0.08265 | 0.002535 | 0.03326 | 0.01475 | 0.03153 | 0.0001672 | 0.01856 | 0.02186 |
| CCOc1ccccc1-n1c(C(C)N2CCN(C(=O)COc3ccc(Cl)cc3)CC2)nc2ccccc2c1=O (stereo not drawn) [erastin, reference compound] | 0.09348 | −0.05751 | −0.0006165 | 0.09081 | −0.1704 | −0.005058 | −0.0388 | −0.03971 | 0.1538 | 0.1115 | −0.02334 | −0.05625 | 0.1665 | 0.1892 | 0.0155 | 0.3276 | 0.2492 | −0.005301 |
